Experimental data reported in article PMC9133015 (Nature Communications, 2022).
“And” between values parts separate entries of the source, which are not always exact repeats. Identical values can stand only once.

Assays:
Assay in all cases: Kinase inhibitor specificity profiling (Reaction Biology Corporation)
Format in all cases: biochemical
Set-up in all cases: % Enzyme Activity (relative to DMSO controls): concentration or dose not given beside the values
[1] = target: T1, panel of 370 protein kinases (Homo sapiens, UniProt Q96L34); conditions: kinase MARK4
T1 construct: purchased Reaction Biology Corporation (assay service)
T1 sequence (Q96L34 whole entry): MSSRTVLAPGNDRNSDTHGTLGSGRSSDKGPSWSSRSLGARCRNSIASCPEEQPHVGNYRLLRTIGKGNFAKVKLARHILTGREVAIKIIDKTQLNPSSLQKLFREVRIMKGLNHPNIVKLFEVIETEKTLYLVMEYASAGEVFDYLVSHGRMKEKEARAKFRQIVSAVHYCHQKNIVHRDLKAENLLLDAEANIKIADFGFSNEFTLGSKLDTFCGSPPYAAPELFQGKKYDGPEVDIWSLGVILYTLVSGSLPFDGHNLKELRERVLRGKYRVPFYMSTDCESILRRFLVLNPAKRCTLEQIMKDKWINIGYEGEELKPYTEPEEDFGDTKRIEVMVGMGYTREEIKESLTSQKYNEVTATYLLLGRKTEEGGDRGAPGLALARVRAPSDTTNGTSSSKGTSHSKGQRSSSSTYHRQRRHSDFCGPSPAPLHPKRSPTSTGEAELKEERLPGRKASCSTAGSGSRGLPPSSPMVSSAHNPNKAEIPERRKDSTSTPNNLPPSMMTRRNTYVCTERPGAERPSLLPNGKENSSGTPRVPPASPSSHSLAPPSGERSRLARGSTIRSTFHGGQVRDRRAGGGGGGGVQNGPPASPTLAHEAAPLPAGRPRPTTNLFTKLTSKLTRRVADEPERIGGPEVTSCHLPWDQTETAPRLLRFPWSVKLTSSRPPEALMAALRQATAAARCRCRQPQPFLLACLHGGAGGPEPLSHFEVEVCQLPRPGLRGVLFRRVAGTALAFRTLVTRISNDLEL

[2] = target: T2, panel of 370 protein kinases (Homo sapiens, UniProt P27361); conditions: 2 h, kinase ERK1; read-out: % Enzyme Activity (relative to DMSO controls)
T2 construct: purchased Reaction Biology Corporation (assay service)

[3] = target: T3, panel of 370 protein kinases (Homo sapiens, UniProt Q9H2G2); conditions: 2 h, kinase SLK/STK2; read-out: % Enzyme Activity (relative to DMSO controls)
T3 construct: purchased Reaction Biology Corporation (assay service)

[4] = target: T4, panel of 370 protein kinases (Homo sapiens, UniProt P24941)
T4 construct: purchased Reaction Biology Corporation (assay service)

[5] = target: T5, panel of 370 protein kinases (Homo sapiens, UniProt Q8N568); conditions: 2 h, kinase DCAMKL2; read-out: % Enzyme Activity (relative to DMSO controls)
T5 construct: purchased Reaction Biology Corporation (assay service)
T5 sequence (Q8N568 whole entry): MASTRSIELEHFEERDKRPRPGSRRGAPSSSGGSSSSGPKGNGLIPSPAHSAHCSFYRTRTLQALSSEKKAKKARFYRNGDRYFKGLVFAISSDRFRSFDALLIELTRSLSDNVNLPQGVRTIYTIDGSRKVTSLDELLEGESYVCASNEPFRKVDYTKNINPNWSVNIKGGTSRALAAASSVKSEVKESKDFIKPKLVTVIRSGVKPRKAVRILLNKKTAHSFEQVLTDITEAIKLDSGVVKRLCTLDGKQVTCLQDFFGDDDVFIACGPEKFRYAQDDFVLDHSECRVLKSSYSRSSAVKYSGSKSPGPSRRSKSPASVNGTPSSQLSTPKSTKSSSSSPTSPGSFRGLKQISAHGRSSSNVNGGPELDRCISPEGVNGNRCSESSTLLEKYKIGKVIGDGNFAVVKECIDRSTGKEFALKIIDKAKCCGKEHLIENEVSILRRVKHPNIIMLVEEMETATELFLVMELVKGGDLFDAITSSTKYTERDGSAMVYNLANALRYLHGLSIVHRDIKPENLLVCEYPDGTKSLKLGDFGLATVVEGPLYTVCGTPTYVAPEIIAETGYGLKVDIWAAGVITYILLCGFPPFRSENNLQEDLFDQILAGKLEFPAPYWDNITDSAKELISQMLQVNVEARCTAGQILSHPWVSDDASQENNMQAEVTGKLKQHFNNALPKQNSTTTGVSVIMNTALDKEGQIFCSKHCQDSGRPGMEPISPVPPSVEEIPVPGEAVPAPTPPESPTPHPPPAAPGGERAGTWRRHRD

[6] = target: T6, panel of 370 protein kinases (Homo sapiens, UniProt P11362); conditions: 2 h, kinase FGFR1; read-out: % Enzyme Activity (relative to DMSO controls)
T6 construct: purchased Reaction Biology Corporation (assay service)

[7] = target: T7, panel of 370 protein kinases (Homo sapiens, UniProt P04626); conditions: 2 h, kinase ERBB2/HER2; read-out: % Enzyme Activity (relative to DMSO controls)
T7 construct: purchased Reaction Biology Corporation (assay service)

[8] = target: T8, panel of 370 protein kinases (Homo sapiens, UniProt Q9UPE1); conditions: 2 h, kinase MSSK1/STK23; read-out: % Enzyme Activity (relative to DMSO controls)
T8 construct: purchased Reaction Biology Corporation (assay service)
T8 sequence (Q9UPE1 whole entry): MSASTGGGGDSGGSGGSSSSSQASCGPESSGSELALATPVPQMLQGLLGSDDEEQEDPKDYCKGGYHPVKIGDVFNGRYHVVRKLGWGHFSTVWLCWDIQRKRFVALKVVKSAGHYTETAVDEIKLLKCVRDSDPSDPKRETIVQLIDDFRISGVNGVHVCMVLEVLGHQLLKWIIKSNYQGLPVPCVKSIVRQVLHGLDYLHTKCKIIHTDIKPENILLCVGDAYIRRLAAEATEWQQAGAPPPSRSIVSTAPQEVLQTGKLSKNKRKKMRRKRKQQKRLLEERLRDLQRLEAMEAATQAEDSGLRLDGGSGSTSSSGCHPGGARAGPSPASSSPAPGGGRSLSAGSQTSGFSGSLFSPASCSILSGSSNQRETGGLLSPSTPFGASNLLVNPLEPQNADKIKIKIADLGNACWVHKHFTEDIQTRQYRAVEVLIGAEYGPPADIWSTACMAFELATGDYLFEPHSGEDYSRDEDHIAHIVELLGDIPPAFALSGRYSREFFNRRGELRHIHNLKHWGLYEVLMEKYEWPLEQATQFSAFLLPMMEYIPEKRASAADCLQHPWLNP

[9] = target: T9, panel of 370 protein kinases (Homo sapiens, UniProt Q9UM73); conditions: 2 h, kinase ALK; read-out: % Enzyme Activity (relative to DMSO controls)
T9 construct: purchased Reaction Biology Corporation (assay service)

[10] = target: T10, panel of 370 protein kinases (Homo sapiens, UniProt O00311); conditions: 2 h, read-out: % Enzyme Activity (relative to DMSO controls), kinase CDC7/DBF4
T10 construct: purchased Reaction Biology Corporation (assay service)

[11] = target: T11, panel of 370 protein kinases (Homo sapiens, UniProt Q9NRH2); conditions: 2 h, kinase SNRK; read-out: % Enzyme Activity (relative to DMSO controls)
T11 construct: purchased Reaction Biology Corporation (assay service)

[12] = target: T12, panel of 370 protein kinases (Homo sapiens, UniProt P22607); conditions: 2 h, kinase FGFR3; read-out: % Enzyme Activity (relative to DMSO controls)
T12 construct: purchased Reaction Biology Corporation (assay service)

[13] = target: T13, panel of 370 protein kinases (Homo sapiens, UniProt P10721); conditions: 2 h, kinase c-Kit; read-out: % Enzyme Activity (relative to DMSO controls)
T13 construct: purchased Reaction Biology Corporation (assay service)
T13 sequence (P10721 26-976): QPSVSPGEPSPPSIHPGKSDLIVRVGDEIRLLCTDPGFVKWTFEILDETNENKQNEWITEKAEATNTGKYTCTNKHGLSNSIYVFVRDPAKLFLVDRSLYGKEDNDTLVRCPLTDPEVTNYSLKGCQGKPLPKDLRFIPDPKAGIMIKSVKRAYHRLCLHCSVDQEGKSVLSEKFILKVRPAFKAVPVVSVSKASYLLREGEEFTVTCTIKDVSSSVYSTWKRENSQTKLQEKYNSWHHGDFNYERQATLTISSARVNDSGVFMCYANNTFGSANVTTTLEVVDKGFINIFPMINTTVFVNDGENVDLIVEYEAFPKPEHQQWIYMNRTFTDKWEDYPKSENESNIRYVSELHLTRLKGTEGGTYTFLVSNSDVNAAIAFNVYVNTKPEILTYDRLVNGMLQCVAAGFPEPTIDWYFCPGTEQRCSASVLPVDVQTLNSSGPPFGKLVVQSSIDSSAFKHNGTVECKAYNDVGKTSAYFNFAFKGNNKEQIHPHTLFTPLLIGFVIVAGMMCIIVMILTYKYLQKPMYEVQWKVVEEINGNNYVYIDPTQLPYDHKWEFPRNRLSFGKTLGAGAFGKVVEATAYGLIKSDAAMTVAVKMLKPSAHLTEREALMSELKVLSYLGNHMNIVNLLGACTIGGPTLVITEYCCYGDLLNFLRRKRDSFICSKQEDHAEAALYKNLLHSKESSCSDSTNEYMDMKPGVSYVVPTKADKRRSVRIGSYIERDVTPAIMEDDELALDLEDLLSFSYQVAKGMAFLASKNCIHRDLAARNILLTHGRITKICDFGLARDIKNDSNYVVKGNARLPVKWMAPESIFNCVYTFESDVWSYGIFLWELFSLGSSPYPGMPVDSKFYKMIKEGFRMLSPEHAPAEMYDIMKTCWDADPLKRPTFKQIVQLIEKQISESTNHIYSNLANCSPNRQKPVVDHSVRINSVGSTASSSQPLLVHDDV

[14] = target: T14, panel of 370 protein kinases (Homo sapiens, UniProt Q16816); conditions: 2 h, kinase PHKg1; read-out: % Enzyme Activity (relative to DMSO controls)
T14 construct: purchased Reaction Biology Corporation (assay service)
T14 sequence (Q16816 whole entry): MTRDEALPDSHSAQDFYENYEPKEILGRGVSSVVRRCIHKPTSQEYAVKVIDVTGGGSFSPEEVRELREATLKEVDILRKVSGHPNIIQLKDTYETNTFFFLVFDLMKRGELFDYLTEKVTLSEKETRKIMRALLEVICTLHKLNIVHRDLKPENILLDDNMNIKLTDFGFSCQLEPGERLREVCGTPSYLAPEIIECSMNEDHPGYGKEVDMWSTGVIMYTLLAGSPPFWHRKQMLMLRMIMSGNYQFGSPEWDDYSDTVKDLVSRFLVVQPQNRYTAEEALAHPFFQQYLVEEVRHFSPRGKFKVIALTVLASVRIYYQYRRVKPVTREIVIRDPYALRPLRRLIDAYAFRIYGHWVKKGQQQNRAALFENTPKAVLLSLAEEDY

[15] = target: T15, panel of 370 protein kinases (Homo sapiens, UniProt P04049); conditions: 2 h, kinase RAF1; read-out: % Enzyme Activity (relative to DMSO controls)
T15 construct: purchased Reaction Biology Corporation (assay service)

[16] = target: T16, panel of 370 protein kinases (Homo sapiens, UniProt P43403); conditions: 2 h, kinase ZAP70; read-out: % Enzyme Activity (relative to DMSO controls)
T16 construct: purchased Reaction Biology Corporation (assay service)
T16 sequence (P43403 whole entry): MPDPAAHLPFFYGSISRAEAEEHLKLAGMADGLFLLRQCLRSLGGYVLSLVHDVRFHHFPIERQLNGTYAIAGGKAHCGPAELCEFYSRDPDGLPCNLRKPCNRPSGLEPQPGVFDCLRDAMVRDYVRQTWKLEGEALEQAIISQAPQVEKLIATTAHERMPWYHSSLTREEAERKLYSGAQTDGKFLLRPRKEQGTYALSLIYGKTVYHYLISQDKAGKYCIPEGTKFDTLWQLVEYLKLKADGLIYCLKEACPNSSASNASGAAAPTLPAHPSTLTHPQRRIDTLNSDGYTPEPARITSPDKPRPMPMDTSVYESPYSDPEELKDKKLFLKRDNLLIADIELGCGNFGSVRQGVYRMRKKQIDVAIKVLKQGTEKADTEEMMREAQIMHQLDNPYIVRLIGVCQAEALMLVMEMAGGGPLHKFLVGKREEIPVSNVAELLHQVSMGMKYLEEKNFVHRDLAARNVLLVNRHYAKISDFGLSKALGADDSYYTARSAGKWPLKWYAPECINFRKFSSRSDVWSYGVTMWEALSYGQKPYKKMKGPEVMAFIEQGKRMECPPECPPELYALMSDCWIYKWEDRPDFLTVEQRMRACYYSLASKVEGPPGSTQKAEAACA

[17] = target: T17, panel of 370 protein kinases (Homo sapiens, UniProt Q5S007); conditions: 2 h, kinase LRRK2; read-out: % Enzyme Activity (relative to DMSO controls)
T17 construct: purchased Reaction Biology Corporation (assay service)

[18] = target: T18, panel of 370 protein kinases (Homo sapiens, UniProt P45983); conditions: kinase JNK1
T18 construct: purchased Reaction Biology Corporation (assay service)
T18 sequence (P45983 whole entry): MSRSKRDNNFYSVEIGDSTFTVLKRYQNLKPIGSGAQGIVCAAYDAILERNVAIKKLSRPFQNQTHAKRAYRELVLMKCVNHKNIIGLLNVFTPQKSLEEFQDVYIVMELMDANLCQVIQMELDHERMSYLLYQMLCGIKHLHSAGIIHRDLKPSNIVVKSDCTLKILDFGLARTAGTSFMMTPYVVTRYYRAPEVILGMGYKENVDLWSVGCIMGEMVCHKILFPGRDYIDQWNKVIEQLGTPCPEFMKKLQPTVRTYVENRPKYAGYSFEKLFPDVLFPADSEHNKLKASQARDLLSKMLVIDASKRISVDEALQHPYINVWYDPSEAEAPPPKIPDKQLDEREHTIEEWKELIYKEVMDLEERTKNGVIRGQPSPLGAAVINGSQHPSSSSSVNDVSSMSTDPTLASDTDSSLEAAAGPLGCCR

[19] = target: T19, panel of 370 protein kinases (Homo sapiens, UniProt Q16566); conditions: 2 h, kinase CAMK4; read-out: % Enzyme Activity (relative to DMSO controls)
T19 construct: purchased Reaction Biology Corporation (assay service)

[20] = target: T20, panel of 370 protein kinases (Homo sapiens, UniProt Q04759); conditions: 2 h, kinase PKCtheta; read-out: % Enzyme Activity (relative to DMSO controls)
T20 construct: purchased Reaction Biology Corporation (assay service)

[21] = target: T21, panel of 370 protein kinases (Homo sapiens, UniProt O14733); conditions: kinase MKK7
T21 construct: purchased Reaction Biology Corporation (assay service)
T21 sequence (O14733 whole entry): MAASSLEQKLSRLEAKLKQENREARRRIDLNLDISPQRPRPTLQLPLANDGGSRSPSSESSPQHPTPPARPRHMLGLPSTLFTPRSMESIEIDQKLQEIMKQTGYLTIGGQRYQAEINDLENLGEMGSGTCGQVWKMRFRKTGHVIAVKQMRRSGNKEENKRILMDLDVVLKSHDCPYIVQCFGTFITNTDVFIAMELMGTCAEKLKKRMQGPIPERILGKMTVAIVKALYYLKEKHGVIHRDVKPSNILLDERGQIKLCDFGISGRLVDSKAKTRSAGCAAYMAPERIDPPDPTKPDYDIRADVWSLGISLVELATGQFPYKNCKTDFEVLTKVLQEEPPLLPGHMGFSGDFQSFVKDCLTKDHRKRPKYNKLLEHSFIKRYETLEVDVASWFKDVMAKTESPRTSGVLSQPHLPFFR

In the case of `CCN1CCN(C(=O)c2ccc(Nc3ncc(F)c(-c4ccc5nc(N(C)C)sc5c4)n3)nc2)CC1` [YK-2-69], the “% Enzyme Activity (relative to DMSO controls)” value [1] is reported as 79.55% and 79.20%, the remaining activity at 1 µM [2] is reported as 101% and the remaining activity at 1 µM [3] is reported as 94.5%. The “% Enzyme Activity (relative to DMSO controls)” value ([4]; kinase CDK2/CYCLIN A) was 90.79% and 87.87%, the “% Enzyme Activity (relative to DMSO controls)” value ([4]; kinase CDK2/CYCLIN E) was 95.30% and 94.87% and the “% Enzyme Activity (relative to DMSO controls)” value ([4]; kinase CDK2/Cyclin A1) was 80.25% and 75.26%. The “% Enzyme Activity (relative to DMSO controls)” value ([4]; kinase CDK2/cyclin E2) was 104.31% and 100.73%, the “% Enzyme Activity (relative to DMSO controls)” value ([4]; kinase CDK2/cyclin O) was 78.97% and 75.52% and the remaining activity at 1 µM [5] was 108%. It also gave a remaining activity at 1 µM [6] of 76.5%, a remaining activity at 1 µM [7] of 100% and a remaining activity at 1 µM [8] of 96.3%. For the same compound, the remaining activity at 1 µM [9] was 98.8%, the remaining activity at 1 µM [10] was 121% and the remaining activity at 1 µM [11] was 95.4%. The remaining activity at 1 µM [12] was 94%, the remaining activity at 1 µM [13] was 94% and the remaining activity at 1 µM [14] was 89.4%. It also gave a remaining activity at 1 µM [15] of 106%, a remaining activity at 1 µM [16] of 87.8% and a remaining activity at 1 µM [17] of 72%. The “% Enzyme Activity (relative to DMSO controls)” value [18] was 71.84% and 70.88%, the remaining activity at 1 µM [19] was 101% and the remaining activity at 1 µM [20] was 103%. The “% Enzyme Activity (relative to DMSO controls)” value [21] was 97.65% and 97.50%.
